Measured values reported in US7491819B1 (priority 2004, dated 2009).
pIC50: −log10 of the molar value.

What follows are compounds tested against T1, HIV-integrase (Human immunodeficiency virus type 1 group M subtype B, UniProt P12497) (assay: HIV-Integrase Inhibition Activity (SPA bead strand-transfer assay)). Conditions: Table 1; read-out: Activity (HIV-integrase inhibition, IC50 class).
T1 construct: Recombinant integrase (0.26 ng) was incubated with the beads
Format: biochemical
Summary of the method: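 Biotin-labelled substrate DNA (5 pmole) bound to streptavidin SPA beads, preloaded with recombinant integrase (0.26 ng) for 90 min at 37° C, then washed. Inhibitors and 0.1 fmol P33-labelled target DNA added; reaction stopped with 10 mM EDTA. Integration read as scintillation CPM.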

| SMILES | pIC50 |
| --- | --- |
| CC1(C)OCCn2c1nc(C(=O)NCc1ccc(F)cc1Nc1nccs1)c(O)c2=O [Example 115, Pyrimido[2,1-c][1,4]oxazine-2-carboxamide, N-[[4-fluoro-2-(2-thiazolylamino)phenyl]methyl]-4,6,7,9-tetrahydro-3-hydroxy-9,9-dimethyl-4-oxo-] | 7.00 to 8.70 |
| CC1(C)OCCn2c1nc(C(=O)NCc1ccccc1-c1cccc3ncccc13)c(O)c2=O [Example 197, Pyrimido[2,1-c][1,4]oxazine-2-carboxamide, 4,6,7,9-tetrahydro-3-hydroxy-9,9-dimethyl-4-oxo-N-[[2-(5-quinolinyl)phenyl]methyl]-] | 7.00 to 8.70 |
| CC1(C)OCCn2c1nc(C(=O)NCc1ccc(O)cc1)c(O)c2=O [Example 259, Pyrimido[2,1-c][1,4]oxazine-2-carboxamide, 4,6,7,9-tetrahydro-3-hydroxy-N-[(4-hydroxyphenyl)methyl]-9,9-dimethyl-4-oxo-] | 7.00 to 8.70 |
| CN(C)C[C@H]1CCC(=O)N1c1cc(F)ccc1CNC(=O)c1nc2n(c(=O)c1O)CCOC2(C)C [Example 131, (R)—N-(2-(2-((Dimethylamino)methyl)-5-oxopyrrolidin-1-yl)-4-fluorobenzyl)-3-hydroxy-9,9-dimethyl-4-oxo-4,6,7,9-tetrahydropyrimido[2,1-c][1,4]oxazine-2-carboxamide] | 6.00 to 7.00 |
| CC1(C)OCCn2c1nc(C(=O)NCc1ccc(F)cc1Br)c(O)c2=O [Example 59, Pyrimido[2,1-c][1,4]oxazine-2-carboxamide, N-[(2-bromo-4-fluorophenyl)methyl]-4,6,7,9-tetrahydro-3-hydroxy-9,9-dimethyl-4-oxo-] | 7.00 to 8.70 |
| CC1(C)OCCCn2c1nc(C(=O)NCc1ccc(F)cc1)c(O)c2=O [Example 44, 6H-Pyrimido[2,1-c][1,4]oxazepine-2-carboxamide, N-[(4-fluorophenyl)methyl]-4,7,8,10-tetrahydro-3-hydroxy-10,10-dimethyl-4-oxo-] | 7.00 to 8.70 |
| Cc1ccc(Cl)cc1CNC(=O)c1nc2n(c(=O)c1O)CCOC2(C)C [Example 251, Pyrimido[2,1-c][1,4]oxazine-2-carboxamide, N-[(5-chloro-2-methylphenyl)methyl]-4,6,7,9-tetrahydro-3-hydroxy-9,9-dimethyl-4-oxo-] | 7.00 to 8.70 |
| COc1ncccc1-c1ccccc1CNC(=O)c1nc2n(c(=O)c1O)CCOC2(C)C [Example 152, Pyrimido[2,1-c][1,4]oxazine-2-carboxamide, 4,6,7,9-tetrahydro-3-hydroxy-N-[[2-(2-methoxy-3-pyridinyl)phenyl]methyl]-9,9-dimethyl-4-oxo-] | 7.00 to 8.70 |
| CC1(C)OCCn2c1nc(C(=O)NCc1ccc(F)cc1N1CCCCC1=O)c(O)c2=O [Example 121, Pyrimido[2,1-c][1,4]oxazine-2-carboxamide, N-[[4-fluoro-2-(2-oxo-1-piperidinyl)phenyl]methyl]-4,6,7,9-tetrahydro-3-hydroxy-9,9-dimethyl-4-oxo-] | 7.00 to 8.70 |
| CCNc1cc(F)ccc1CNC(=O)c1nc2n(c(=O)c1O)CCOC2(C)C [Example 87, Pyrimido[2,1-c][1,4]oxazine-2-carboxamide, N-[[2-(ethylamino)-4-fluorophenyl]methyl]-4,6,7,9-tetrahydro-3-hydroxy-9,9-dimethyl-4-oxo-] | 7.00 to 8.70 |
| CC1(C)OCCn2c1nc(C(=O)NCc1ccccc1N1CCOCC1)c(O)c2=O [Example 260, Pyrimido[2,1-c][1,4]oxazine-2-carboxamide, 4,6,7,9-tetrahydro-3-hydroxy-9,9-dimethyl-N-[[2-(4-morpholinyl)phenyl]methyl]-4-oxo-] | 7.00 to 8.70 |
| CC1(C)OCCn2c1nc(C(=O)NCc1ccccc1-c1ccc(F)c(F)c1)c(O)c2=O [Example 188, Pyrimido[2,1-c][1,4]oxazine-2-carboxamide, N-[(3′,4′-difluoro[1,1′-biphenyl]-2-yl)methyl]-4,6,7,9-tetrahydro-3-hydroxy-9,9-dimethyl-4-oxo-] | 7.00 to 8.70 |
| CC1(C)OCCn2c1nc(C(=O)NCc1ccccc1-c1ccc(CC#N)cc1)c(O)c2=O [Example 189, Pyrimido[2,1-c][1,4]oxazine-2-carboxamide, N-[[4′-(cyanomethyl)[1,1′-biphenyl]-2-yl]methyl]-4,6,7,9-tetrahydro-3-hydroxy-9,9-dimethyl-4-oxo-] | 7.00 to 8.70 |
| CC(C)Oc1ccccc1CNC(=O)c1nc2n(c(=O)c1O)CCOC2(C)C [Example 262, Pyrimido[2,1-c][1,4]oxazine-2-carboxamide, 4,6,7,9-tetrahydro-3-hydroxy-9,9-dimethyl-N-[[2-(1-methylethoxy)phenyl]methyl]-4-oxo-] | 7.00 to 8.70 |
| CC1(C)OCCn2c1nc(C(=O)NCc1ccc3c(c1)CCO3)c(O)c2=O [Example 250, Pyrimido[2,1-c][1,4]oxazine-2-carboxamide, N-[(2,3-dihydro-5-benzofuranyl)methyl]-4,6,7,9-tetrahydro-3-hydroxy-9,9-dimethyl-4-oxo-] | 7.00 to 8.70 |
| CC1(C)OCCn2c1nc(C(=O)NCc1cc(F)cc(C(F)(F)F)c1)c(O)c2=O [Example 237, Pyrimido[2,1-c][1,4]oxazine-2-carboxamide, N-[[3-fluoro-5-(trifluoromethyl)phenyl]methyl]-4,6,7,9-tetrahydro-3-hydroxy-9,9-dimethyl-4-oxo-] | 7.00 to 8.70 |
| CCC1(CC)OCCn2c1nc(C(=O)NCc1ccc(F)cc1S(=O)(=O)N(C)C)c(O)c2=O [Example 205, Pyrimido[2,1-c][1,4]oxazine-2-carboxamide, N-[[2-[(dimethylamino)sulfonyl]-4-fluorophenyl]methyl]-9,9-diethyl-4,6,7,9-tetrahydro-3-hydroxy-4-oxo-] | 7.00 to 8.70 |
| CC1(C)OCCn2c1nc(C(=O)NCc1ccc(F)cc1N1CCC1=O)c(O)c2=O [Example 126, N-(4-Fluoro-2-(2-oxoazetidin-1-yl)benzyl)-3-hydroxy-9,9-dimethyl-4-oxo-4,6,7,9-tetrahydropyrimido[2,1-c][1,4]oxazine-2-carboxamide] | 7.00 to 8.70 |
| CC1(C)OCCn2c1nc(C(=O)NCc1ccccc1-c1ccc(N)nc1)c(O)c2=O [Example 157, Pyrimido[2,1-c][1,4]oxazine-2-carboxamide, N-[[2-(6-amino-3-pyridinyl)phenyl]methyl]-4,6,7,9-tetrahydro-3-hydroxy-9,9-dimethyl-4-oxo-] | 7.00 to 8.70 |
| Cc1cnc(CNC(=O)c2nc3n(c(=O)c2O)CCOC3(C)C)cn1 [Example 142, Pyrimido[2,1-c][1,4]oxazine-2-carboxamide, 4,6,7,9-tetrahydro-3-hydroxy-9,9-dimethyl-N-[(5-methylpyrazinyl)methyl]-4-oxo-] | 7.00 to 8.70 |
| CC1(C)OCCn2c1nc(C(=O)NCc1ccc3c(c1)OCCO3)c(O)c2=O [Example 230, Pyrimido[2,1-c][1,4]oxazine-2-carboxamide, N-[(2,3-dihydro-1,4-benzodioxin-6-yl)methyl]-4,6,7,9-tetrahydro-3-hydroxy-9,9-dimethyl-4-oxo-] | 7.00 to 8.70 |
| CC(C)C1OCCn2c1nc(C(=O)NCc1ccc(F)cc1)c(O)c2=O (centres unmarked) [Example 17, Pyrimido[2,1-c][1,4]oxazine-2-carboxamide, N-[(4-fluorophenyl)methyl]-4,6,7,9-tetrahydro-3-hydroxy-9-(1-methylethyl)-4-oxo-] | 7.00 to 8.70 |
| C#Cc1cc(F)ccc1CNC(=O)c1nc2n(c(=O)c1O)CCOC2(C)C [Example 88, Pyrimido[2,1-c][1,4]oxazine-2-carboxamide, N-[(2-ethynyl-4-fluorophenyl)methyl]-4,6,7,9-tetrahydro-3-hydroxy-9,9-dimethyl-4-oxo-] | 7.00 to 8.70 |
